Measured values published in PubChem BioAssay AID2060499 (Molecular Pharmacology Branch, DTP, NCI, 2025).
pIC50: −log10 of the molar value.

System: 777334-354-R2-J4-PDC tumor spheroids with HUVEC/MSC, viability
Experiment: Anticancer human tumor 777334-354-R2-J4-PDC patient-derived pancreatic adenocarcinoma cell line growth inhibition [GQUAD]
Conditions: for pIC50: curve of first compound; for viability, T/C: stronger effect = lower value
Summary of the method: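 Tumor cells were grown as complex spheroids with HUVEC endothelial cells and mesenchymal stem cells as stroma. G-quadruplex stabilizers were combined with targeted agents over half-log dilutions from near the clinical Cmax, or from 10 microM.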

[1] = second compound 0.0316 µM, first compound 0.0316 µM
[2] = second compound 0.0316 µM, first compound 0.1 µM
[3] = second compound 0.0316 µM, first compound 0.316 µM
[4] = second compound 0.0316 µM, first compound 1 µM
[5] = second compound 0.0316 µM, first compound 3.16 µM
[6] = second compound 0.0316 µM, first compound 10 µM
[7] = second compound 0.1 µM, first compound 0.0316 µM
[8] = second compound 0.1 µM, first compound 0.1 µM
[9] = second compound 0.1 µM, first compound 0.316 µM
[10] = second compound 0.1 µM, first compound 1 µM
[11] = second compound 0.1 µM, first compound 3.16 µM
[12] = second compound 0.1 µM, first compound 10 µM
[13] = second compound 0.316 µM, first compound 0.0316 µM
[14] = second compound 0.316 µM, first compound 0.1 µM
[15] = second compound 0.316 µM, first compound 0.316 µM
[16] = second compound 0.316 µM, first compound 1 µM
[17] = second compound 0.316 µM, first compound 3.16 µM
[18] = second compound 0.316 µM, first compound 10 µM
[19] = second compound 1 µM, first compound 0.0316 µM
[20] = second compound 1 µM, first compound 0.1 µM
[21] = second compound 1 µM, first compound 0.316 µM
[22] = second compound 1 µM, first compound 1 µM
[23] = second compound 1 µM, first compound 3.16 µM
[24] = second compound 1 µM, first compound 10 µM
[25] = second compound 3.16 µM, first compound 0.0316 µM
[26] = second compound 3.16 µM, first compound 0.1 µM
[27] = second compound 3.16 µM, first compound 0.316 µM
[28] = second compound 3.16 µM, first compound 1 µM
[29] = second compound 3.16 µM, first compound 3.16 µM
[30] = second compound 3.16 µM, first compound 10 µM
[31] = second compound 10 µM, first compound 0.0316 µM
[32] = second compound 10 µM, first compound 0.1 µM
[33] = second compound 10 µM, first compound 0.316 µM
[34] = second compound 10 µM, first compound 1 µM
[35] = second compound 10 µM, first compound 3.16 µM
[36] = second compound 10 µM, first compound 10 µM
[37] = second compound 0.0316 µM, first compound 0.000999 µM
[38] = second compound 0.0316 µM, first compound 0.00316 µM
[39] = second compound 0.0316 µM, first compound 0.00999 µM
[40] = second compound 0.0316 µM, first compound 0.0999 µM
[41] = second compound 0.1 µM, first compound 0.000999 µM
[42] = second compound 0.1 µM, first compound 0.00316 µM
[43] = second compound 0.1 µM, first compound 0.00999 µM
[44] = second compound 0.1 µM, first compound 0.0999 µM
[45] = second compound 0.316 µM, first compound 0.000999 µM
[46] = second compound 0.316 µM, first compound 0.00316 µM
[47] = second compound 0.316 µM, first compound 0.00999 µM
[48] = second compound 0.316 µM, first compound 0.0999 µM
[49] = second compound 1 µM, first compound 0.000999 µM
[50] = second compound 1 µM, first compound 0.00316 µM
[51] = second compound 1 µM, first compound 0.00999 µM
[52] = second compound 1 µM, first compound 0.0999 µM
[53] = second compound 3.16 µM, first compound 0.000999 µM
[54] = second compound 3.16 µM, first compound 0.00316 µM
[55] = second compound 3.16 µM, first compound 0.00999 µM
[56] = second compound 3.16 µM, first compound 0.0999 µM
[57] = second compound 10 µM, first compound 0.000999 µM
[58] = second compound 10 µM, first compound 0.00316 µM
[59] = second compound 10 µM, first compound 0.00999 µM
[60] = second compound 10 µM, first compound 0.0999 µM
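Note: spheroids exposed to compounds for 7 days before readout.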

Structure (SMILES): C=CC(=O)N1CCN(c2nc(=O)n(-c3c(C)ccnc3C(C)C)c3nc(-c4c(O)cccc4F)c(F)cc23)C(C)C1 (stereo not drawn) + CN(C)c1ccc(Nc2c3ccc(NC(=O)CCN4CCCC4)cc3nc3cc(NC(=O)CCN4CCCC4)ccc23)cc1
- pIC50 (second compound 0.0316 µM): < 5.00
- pIC50 (second compound 0.1 µM): < 5.00
- pIC50 (second compound 0.316 µM): < 5.00
- pIC50 (second compound 1 µM): < 5.00
- pIC50 (second compound 3.16 µM): < 5.00
- pIC50 (second compound 10 µM): < 5.00
- viability, T/C [1]: 102%
- viability, T/C [2]: 97%
- viability, T/C [3]: 115%
- viability, T/C [4]: 100%
- viability, T/C [5]: 116%
- viability, T/C [6]: 118%
- viability, T/C [7]: 89.5%
- viability, T/C [8]: 95.1%
- viability, T/C [9]: 104%
- viability, T/C [10]: 128%
- viability, T/C [11]: 120%
- viability, T/C [12]: 107%
- viability, T/C [13]: 98.2%
- viability, T/C [14]: 109%
- viability, T/C [15]: 103%
- viability, T/C [16]: 113%
- viability, T/C [17]: 106%
- viability, T/C [18]: 109%
- viability, T/C [19]: 92.8%
- viability, T/C [20]: 86.7%
- viability, T/C [21]: 94.2%
- viability, T/C [22]: 105%
- viability, T/C [23]: 115%
- viability, T/C [24]: 97.7%
- viability, T/C [25]: 84.6%
- viability, T/C [26]: 87.2%
- viability, T/C [27]: 90.5%
- viability, T/C [28]: 107%
- viability, T/C [29]: 112%
- viability, T/C [30]: 95%
- viability, T/C [31]: 76.7%
- viability, T/C [32]: 76.3%
- viability, T/C [33]: 84%
- viability, T/C [34]: 90.5%
- viability, T/C [35]: 99.5%
- viability, T/C [36]: 75.5%

Structure (SMILES): CCc1c2c(nc3ccc(O)cc13)-c1cc3c(c(=O)n1C2)COC(=O)[C@]3(O)CC + CN(C)c1ccc(Nc2c3ccc(NC(=O)CCN4CCCC4)cc3nc3cc(NC(=O)CCN4CCCC4)ccc23)cc1
- pIC50 (second compound 0.0316 µM): 8.28
- pIC50 (second compound 0.1 µM): 8.37
- pIC50 (second compound 0.316 µM): 8.28
- pIC50 (second compound 1 µM): 8.30
- pIC50 (second compound 3.16 µM): 8.50
- pIC50 (second compound 10 µM): 8.32
- viability, T/C [37]: 105%
- viability, T/C [38]: 57.8%
- viability, T/C [39]: 38.6%
- viability, T/C [1]: 23.4%
- viability, T/C [40]: 15.9%
- viability, T/C [3]: 9.58%
- viability, T/C [41]: 85.1%
- viability, T/C [42]: 51.9%
- viability, T/C [43]: 39.6%
- viability, T/C [7]: 22.4%
- viability, T/C [44]: 14.7%
- viability, T/C [9]: 11.4%
- viability, T/C [45]: 79.6%
- viability, T/C [46]: 61.9%
- viability, T/C [47]: 34.6%
- viability, T/C [13]: 21.4%
- viability, T/C [48]: 15.3%
- viability, T/C [15]: 9.02%
- viability, T/C [49]: 84.3%
- viability, T/C [50]: 57%
- viability, T/C [51]: 38.8%
- viability, T/C [19]: 23.9%
- viability, T/C [52]: 13.8%
- viability, T/C [21]: 8.31%
- viability, T/C [53]: 74.9%
- viability, T/C [54]: 49.3%
- viability, T/C [55]: 31.9%
- viability, T/C [25]: 24.7%
- viability, T/C [56]: 15.9%
- viability, T/C [27]: 9.07%
- viability, T/C [57]: 79.5%
- viability, T/C [58]: 57.9%
- viability, T/C [59]: 35.8%
- viability, T/C [31]: 26.8%
- viability, T/C [60]: 19.6%
- viability, T/C [33]: 9.4%

Structure (SMILES): Cc1cccc(N(C)C(=O)C2C(O)CCN2c2nc(C)cc(C(F)(F)F)c2C#N)c1 (stereo not drawn) + CN(C)c1ccc(Nc2c3ccc(NC(=O)CCN4CCCC4)cc3nc3cc(NC(=O)CCN4CCCC4)ccc23)cc1
- pIC50 (second compound 0.0316 µM): < 5.00
- pIC50 (second compound 0.1 µM): < 5.00
- pIC50 (second compound 0.316 µM): < 5.00
- pIC50 (second compound 1 µM): < 5.00
- pIC50 (second compound 3.16 µM): < 5.00
- pIC50 (second compound 10 µM): 5.00
- viability, T/C [1]: 89.3%
- viability, T/C [2]: 87.3%
- viability, T/C [3]: 101%
- viability, T/C [4]: 87.2%
- viability, T/C [5]: 93.2%
- viability, T/C [6]: 89.7%
- viability, T/C [7]: 87.1%
- viability, T/C [8]: 93.3%
- viability, T/C [9]: 85.1%
- viability, T/C [10]: 93.1%
- viability, T/C [11]: 95.2%
- viability, T/C [12]: 90.9%
- viability, T/C [13]: 95.3%
- viability, T/C [14]: 79.1%
- viability, T/C [15]: 94.8%
- viability, T/C [16]: 89.1%
- viability, T/C [17]: 106%
- viability, T/C [18]: 88.5%
- viability, T/C [19]: 90.7%
- viability, T/C [20]: 82.5%
- viability, T/C [21]: 76.6%
- viability, T/C [22]: 84.1%
- viability, T/C [23]: 96.7%
- viability, T/C [24]: 81.8%
- viability, T/C [25]: 77%
- viability, T/C [26]: 71.2%
- viability, T/C [27]: 85.1%
- viability, T/C [28]: 75.3%
- viability, T/C [29]: 80.1%
- viability, T/C [30]: 80.6%
- viability, T/C [31]: 73.7%
- viability, T/C [32]: 79%
- viability, T/C [33]: 69.9%
- viability, T/C [34]: 71.7%
- viability, T/C [35]: 62.8%
- viability, T/C [36]: 50%

Structure (SMILES): Cn1ncnc1[C@H]1c2n[nH]c(=O)c3cc(F)cc(c23)N[C@@H]1c1ccc(F)cc1 + CN(C)c1ccc(Nc2c3ccc(NC(=O)CCN4CCCC4)cc3nc3cc(NC(=O)CCN4CCCC4)ccc23)cc1
- pIC50 (second compound 0.0316 µM): < 6.50
- pIC50 (second compound 0.1 µM): < 6.50
- pIC50 (second compound 0.316 µM): < 6.50
- pIC50 (second compound 1 µM): < 6.50
- pIC50 (second compound 3.16 µM): < 6.50
- pIC50 (second compound 10 µM): < 6.50
- viability, T/C [37]: 108%
- viability, T/C [38]: 89.9%
- viability, T/C [39]: 87.1%
- viability, T/C [1]: 95.8%
- viability, T/C [40]: 92.2%
- viability, T/C [3]: 79.7%
- viability, T/C [41]: 98.7%
- viability, T/C [42]: 85.4%
- viability, T/C [43]: 99%
- viability, T/C [7]: 88.6%
- viability, T/C [44]: 79.6%
- viability, T/C [9]: 81.2%
- viability, T/C [45]: 94%
- viability, T/C [46]: 87.4%
- viability, T/C [47]: 93.1%
- viability, T/C [13]: 87.9%
- viability, T/C [48]: 88.5%
- viability, T/C [15]: 70.5%
- viability, T/C [49]: 103%
- viability, T/C [50]: 86.6%
- viability, T/C [51]: 85.5%
- viability, T/C [19]: 85.5%
- viability, T/C [52]: 82.5%
- viability, T/C [21]: 69.5%
- viability, T/C [53]: 73.5%
- viability, T/C [54]: 72.7%
- viability, T/C [55]: 81.6%
- viability, T/C [25]: 89.9%
- viability, T/C [56]: 83.1%
- viability, T/C [27]: 70.9%
- viability, T/C [57]: 76.2%
- viability, T/C [58]: 74.9%
- viability, T/C [59]: 80.6%
- viability, T/C [31]: 77.6%
- viability, T/C [60]: 82.2%
- viability, T/C [33]: 66.1%
